Structures are written as SMILES.

What is called melting point is the temperature, or range, at which the solid turns liquid. One may read the inhibition as the drop in the measured response relative to a control, in per cent.

One data set concerns the target T1, human μ-opiate receptor (Homo sapiens, UniProt P35372).
T1 construct: purchased PerkinElmer Life Sciences, Zaventem, Belgium RB-HOM; host or cells: CHO-K1 cells (recombinant expression; membrane preparation)
As to the kind of experiment: Affinity for the human μ-opiate receptor ([3H]-naloxone displacement, SPA). The following applies: Table 2, Examples 11-161; test substance 1 μmole/l; inhibition of specific [3H]-naloxone binding; CHO-K1 membranes; read-out: μ-Opioid receptor, % inhibition [1 μM]. In short, it runs like this:
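CHO-K1 membranes expressing the receptor, incubated 90 min at room temperature with 1 nmol/l [3H]-naloxone and WGA-SPA beads in 50 mmol/l Tris-HCl with 0.06% BSA. Non-specific binding defined with 100 μmol/l naloxone. Value is % inhibition of specific binding at 1 μmol/l test substance.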

T1 sequence (P35372 whole entry): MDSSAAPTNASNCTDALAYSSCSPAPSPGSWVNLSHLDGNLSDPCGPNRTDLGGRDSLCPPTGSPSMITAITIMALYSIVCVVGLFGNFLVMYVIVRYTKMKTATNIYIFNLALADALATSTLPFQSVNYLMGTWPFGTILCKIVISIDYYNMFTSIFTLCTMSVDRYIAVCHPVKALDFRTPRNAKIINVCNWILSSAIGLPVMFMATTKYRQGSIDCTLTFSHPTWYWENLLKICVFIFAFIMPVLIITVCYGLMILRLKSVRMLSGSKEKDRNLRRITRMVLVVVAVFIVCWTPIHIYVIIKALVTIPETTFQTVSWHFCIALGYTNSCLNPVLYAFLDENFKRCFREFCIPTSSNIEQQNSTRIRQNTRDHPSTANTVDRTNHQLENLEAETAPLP

Consider `CN(C)C(c1cccc(F)c1)C1CCC(C=O)CC1` (stereo not shown), for which the melting point was in the range of 40 to 43 °C.

On to `COC(=O)CCC1(C(=O)OC)N=CN(CCc2ccccc2)C1C1CCC(C(c2cccc(F)c2)N(C)C)CC1` (stereo not shown) [Example 91, 5-{4-[dimethylamino-(3-fluorophenyl)-methyl]-cyclohexyl}-4-(2-methoxycarbonylethyl)-1-phenethyl-4,5-dihydro-1H-imidazole-4-carboxylic acid methyl ester], for which the inhibition at 1 µM on human μ-opiate receptor stood at 85%. In the case of `CCCC1(C(=O)OC)N=CN(C2CCCCC2)C1CC1CCC(C(CCc2ccccc2)N(C)C)CC1` (stereo not shown) [Example 108, 1-cyclohexyl-5-[4-(1-dimethylamino-3-phenylpropyl)-cyclohexylmethyl]-4-propyl-4,5-dihydro-1H-imidazole-4-carboxylic acid methyl ester], the inhibition at 1 µM on human μ-opiate receptor was determined as 86%.

Take `CCCN1C=NC(Cc2ccc(Cl)cc2)(C(=O)OC)C1C1CCC(C(c2ccc(Cl)cc2)N(C)C)CC1` (stereo not shown) [Example 25, 4-(4-chlorobenzyl)-5-{4-[(4-chlorophenyl)-dimethylaminomethyl]-cyclohexyl}-1-propyl-4,5-dihydro-1H-imidazole-4-carboxylic acid methyl ester]: on human μ-opiate receptor, the inhibition at 1 µM was 83%.

For the compound `CCCN1C=NC(CCC)(C(=O)OC)C1CC1CCC(C(CCc2ccccc2)N(C)C)CC1` (stereo not shown) [Example 120, 5-[4-(1-dimethylamino-3-phenylpropyl)-cyclohexylmethyl]-1,4-dipropyl-4,5-dihydro-1H-imidazole-imidazole-4-carboxylic acid methyl ester], the inhibition at 1 µM at human μ-opiate receptor is 62%. On the same count and under the same terms, as for `CCCN1C=NC(C)(C(=O)OC)C1CC1CCC(C(c2cccc(F)c2)N(C)C)CC1` (stereo not shown) [Example 117, 5-{4-[dimethylamino-(3-fluorophenyl)-methyl]-cyclohexylmethyl}-4-methyl-1-propyl-4,5-dihydro-1H-imidazole-4-carboxylic acid methyl ester], the figure is 88%. Consider `CCCCN1C=NC(CCSC)(C(=O)OC)C1CC1CCC(C(c2cccc(F)c2)N(C)C)CC1` (stereo not shown) [Example 123, 1-butyl-5-{4-[dimethylamino-(3-fluorophenyl)-methyl]-cyclohexylmethyl}-4-(2-methylsulfanylethyl)-4,5-dihydro-1H-imidazole-4-carboxylic acid methyl ester], for which, at human μ-opiate receptor, the inhibition at 1 µM was 98%. On to `CCC(C)C1(C(=O)OC)N=CN(C2CCCCC2)C1CC1CCC(C(c2ccc(F)cc2)N(C)C)CC1` (stereo not shown) [Example 152, 4-sec-butyl-1-cyclohexyl-5-{4-[dimethylamino-(4-fluorophenyl)-methyl]-cyclohexylmethyl}-4,5-dihydro-1H-imidazole-4-carboxylic acid methyl ester], for which the inhibition at 1 µM at human μ-opiate receptor came out at 93%. The same measure, in the same setting: as for `CCCCN1C=NC(CCC(=O)OC)(C(=O)OC)C1CC1CCC(C(CCc2ccccc2)N(C)C)CC1` (stereo not shown) [Example 78, 1-butyl-5-[4-(1-dimethylamino-3-phenylpropyl)-cyclohexylmethyl]-4-(2-methoxycarbonylethyl)-4,5-dihydro-1H-imidazole-4-carboxylic acid methyl ester], the figure is 67%; as for `COC(=O)C1(CC(C)C)N=CN(C2CCCCC2)C1C1CCC(C(c2ccc(Cl)cc2)N(C)C)CC1` (stereo not shown) [Example 14, 5-{4-[(4-chlorophenyl)-dimethylaminomethyl]-cyclohexyl}-1-cyclohexyl-4-isobutyl-4,5-dihydro-1H-imidazole-4-carboxylic acid methyl ester], 92%.

With `COC(=O)C1(CSC)N=CN(C2CCCCC2)C1CC1CCC(C(c2ccc(F)cc2)N(C)C)CC1` (stereo not shown) [Example 153, 1-cyclohexyl-5-{4-[dimethylamino-(4-fluorophenyl)-methyl]-cyclohexylmethyl}-4-methylsulfanylmethyl-4,5-dihydro-1H-imidazole-4-carboxylic acid methyl ester], the inhibition at 1 µM on human μ-opiate receptor stood at 93%.

Take `COC(=O)C1(CCSC)N=CN(CCc2ccccc2)C1CC1CCC(C(c2ccc(F)cc2)N(C)C)CC1` (stereo not shown) [Example 133, 5-{4-[dimethylamino-(4-fluorophenyl)-methyl]-cyclohexylmethyl}-4-(2-methylsulfanylethyl)-1-phenethyl-4,5-dihydro-1H-imidazole-4-carboxylic acid methyl ester]: on human μ-opiate receptor, the inhibition at 1 µM came to 84%. As to `COC(=O)CCC1(C(=O)OC)N=CN(C2CCCCC2)C1C1CCC(C(c2ccc(Cl)cc2)N(C)C)CC1` (stereo not shown) [Example 51, 5-{4-[(4-chlorophenyl)-dimethylaminomethyl]-cyclohexyl}-1-cyclohexyl-4-(2-methoxycarbonylethyl)-4,5-dihydro-1H-imidazole-4-carboxylic acid methyl ester], the inhibition at 1 µM at human μ-opiate receptor stood at 96%. Still for that read-out and setting: for `CCCCN1C=NC(CC(C)C)(C(=O)OC)C1CC1CCC(C(c2ccc(Cl)cc2)N(C)C)CC1` (stereo not shown) [Example 34, 1-butyl-5-{4-[(4-chlorophenyl)-dimethylaminomethyl]-cyclohexylmethyl}-4-isobutyl-4,5-dihydro-1H-imidazole-4-carboxylic acid methyl ester] the value was 98%; for `COC(=O)C1(C)N=CN(CCc2ccccc2)C1CC1CCC(C(c2cccc(F)c2)N(C)C)CC1` (stereo not shown) [Example 131, 5-{4-[dimethylamino-(3-fluorophenyl)-methyl]-cyclohexylmethyl}-4-methyl-1-phenethyl-4,5-dihydro-1H-imidazole-4-carboxylic acid methyl ester], 100%; for `CCCC1(C(=O)OC)N=CN(CCc2ccccc2)C1CC1CCC(C(CCc2ccccc2)N(C)C)CC1` (stereo not shown) [Example 135, 5-[4-(1-dimethylamino-3-phenylpropyl)-cyclohexylmethyl]-1-phenethyl-4-propyl-4,5-dihydro-1H-imidazole-4-carboxylic acid methyl ester], 85%. With `COC(=O)C1(CCSC)N=CN(C2CCCCC2)C1CC1CCC(C(c2ccc(F)cc2)N(C)C)CC1` (stereo not shown) [Example 106, 1-cyclohexyl-5-{4-[dimethylamino-(4-fluorophenyl)-methyl]-cyclohexylmethyl}-4-(2-methylsulfanyl-ethyl)-4,5-dihydro-1H-imidazole-4-carboxylic acid methyl ester], the inhibition at 1 µM on human μ-opiate receptor came to 92%.

In the case of `COC(=O)C1(CSC)N=CN(Cc2ccccc2)C1C1CCC(C(c2cccc(F)c2)N(C)C)CC1` (stereo not shown) [Example 96, 1-benzyl-5-{4-[dimethylamino-(3-fluorophenyl)-methyl]-cyclohexyl}-4-methylsulfanylmethyl-4,5-dihydro-1H-imidazole-4-carboxylic acid methyl ester], the inhibition at 1 µM at human μ-opiate receptor worked out at 97%. For `CCCCN1C=NC(Cc2ccc(Cl)cc2)(C(=O)OC)C1CC1CCC(C(c2ccc(Cl)cc2)N(C)C)CC1` (stereo not shown) [Example 35, 1-butyl-4-(4-chlorobenzyl)-5-{4-[(4-chlorophenyl)-dimethylaminomethyl]-cyclohexylmethyl}-4,5-dihydro-1H-imidazole-4-carboxylic acid methyl ester], the inhibition at 1 µM on human μ-opiate receptor stood at 92%.

Consider `COC(=O)C1(Cc2ccc(Cl)cc2)N=CN(C2CCCCC2)C1CC1CCC(C(c2ccc(Cl)cc2)N(C)C)CC1` (stereo not shown) [Example 18, 4-(4-chlorobenzyl)-5-{4-[(4-chlorophenyl)-dimethylaminomethyl]-cyclohexylmethyl}-1-cyclohexyl-4,5-dihydro-1H-imidazole-4-carboxylic acid methyl ester], for which the inhibition at 1 µM at human μ-opiate receptor came to 90%. Turning to `CCCN1C=NC(CCSC)(C(=O)OC)C1CC1CCC(C(c2cccc(F)c2)N(C)C)CC1` (stereo not shown) [Example 112, 5-{4-[dimethylamino-(3-fluorophenyl)-methyl]-cyclohexylmethyl}-4-(2-methylsulfanyl-ethyl)-1-propyl-4,5-dihydro-1H-imidazole-4-carboxylic acid methyl ester], the inhibition at 1 µM on human μ-opiate receptor is 95%. As to `CCCCC1(C(=O)OC)N=CN(CCC)C1CC1CCC(C(c2ccc(Cl)cc2)N(C)C)CC1` (stereo not shown) [Example 28, 4-butyl-5-{4-[(4-chlorophenyl)-dimethylaminomethyl]-cyclohexylmethyl}-1-propyl-4,5-dihydro-1H-imidazole-4-carboxylic acid methyl ester], the inhibition at 1 µM on human μ-opiate receptor is 97%.

The values are drawn from US7728028B2, “Substituted imidazoline compounds” (Gruenenthal GmbH, priority 2005, dated 2010).
